Assay results: US8815909B2, “Diaminocyclohexane compounds and uses thereof” (Bristol-Myers Squibb Company, priority 2011, dated 2014)
Read-outs that look alike come from different tables or passages of the source.

Target: T1, human Y4 receptor (Homo sapiens, UniProt P50391)
T1 construct: expressed in transfected cells
Experiment: NPY4 cAMP HTRF Agonist Assay (inhibitory cAMP assay, Gi activation by Y4 agonism)
Format: cell-based
Conditions: read-out: hY4 CAMP EC50
How it was run: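 CHO cells stably expressing human Y4, 5000/well, exposed to compound with forskolin and IBMX in PBS for 30 min at room temperature. Gi-mediated inhibition of cAMP then measured by HTRF after 1 h with d2-conjugate and anti-cAMP cryptate.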

[1] = TABLE 7, R2 is Pyridinyl-oxadiazole-CH3

T1 sequence (P50391 whole entry): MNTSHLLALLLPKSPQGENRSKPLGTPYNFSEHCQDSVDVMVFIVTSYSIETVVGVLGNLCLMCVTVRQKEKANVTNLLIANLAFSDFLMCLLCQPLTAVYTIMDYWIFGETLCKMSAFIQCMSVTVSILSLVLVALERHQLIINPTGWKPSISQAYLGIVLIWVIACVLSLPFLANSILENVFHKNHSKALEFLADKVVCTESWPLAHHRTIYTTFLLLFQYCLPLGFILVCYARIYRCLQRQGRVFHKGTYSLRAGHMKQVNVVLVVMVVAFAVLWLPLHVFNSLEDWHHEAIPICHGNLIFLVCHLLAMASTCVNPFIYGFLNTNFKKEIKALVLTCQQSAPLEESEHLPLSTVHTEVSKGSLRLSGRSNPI

SMILES | EC50 (human Y4 receptor, cAMP) [nM] | EC50 [1] [nM]
Cc1nnc(-c2ccc(N3CCCC(N[C@@H]4CCCC[C@H]4Nc4cc(-c5ccccc5F)ccn4)C3)cc2)o1 (stereo partly drawn) [Example 367] | 9 | –
Cc1nnc(-c2ccc(N3CCCC(N[C@@H]4CCCC[C@H]4Nc4cc(-c5ccc6c(c5)OCO6)ccn4)C3)cc2)o1 (stereo partly drawn) [Example 368] | 39 | –
Cc1nnc(-c2ccc(N3CCCC(N[C@@H]4CCCC[C@H]4Nc4cc(-c5ccncc5)ccn4)C3)cc2)o1 (stereo partly drawn) [Example 369] | 5 | –
Cc1nnc(-c2ccc(N3CCCC(N[C@@H]4CCCC[C@H]4Nc4cc(-c5ccc(O)cc5)ccn4)C3)cc2)o1 (stereo partly drawn) [Example 370] | 3 | –
Cc1nnc(-c2ccc(N3CCCC(N[C@@H]4CCCC[C@H]4Nc4cc(-c5cncc6ccccc56)ccn4)C3)cc2)o1 (stereo partly drawn) [Example 371] | 18 | –
COc1ncccc1-c1ccnc(N[C@@H]2CCCC[C@H]2NC2CCCN(c3ccc(-c4nnc(C)o4)cc3)C2)c1 (stereo partly drawn) [Example 372] | 59 | –
Cc1noc(-c2ccc(N3CCC[C@H](N[C@@H]4CCCC[C@H]4Nc4cc(-c5cccc(C(N)=O)c5)ccn4)C3)cc2)n1 [Example 374] | 2 | –
Cc1nnc(-c2ccc(N3CCC[C@H](N[C@@H]4CCCC[C@H]4Nc4cc(-c5ccc(OC(F)F)cc5)ccn4)C3)cc2)o1 [Example 375] | 217 | –
NC(=O)c1cccc(-c2ccnc(N[C@@H]3CCCC[C@H]3N[C@H]3CCCN(c4ccc(-c5ncon5)cc4)C3)c2)c1 [Example 376] | 15 | –
Cc1nnc(-c2ccc(N3CCC[C@H](N[C@@H]4CCCC[C@H]4Nc4cc(-c5cccc(S(N)(=O)=O)c5)ccn4)C3)cc2)o1 [Example 377] | 93 | –
Cc1nc(-c2ccc(N3CCC[C@H](N[C@@H]4CCCC[C@H]4Nc4cc(-c5cccc(C(N)=O)c5)ccn4)C3)cn2)no1 [Example 378] | 4 | –
Cc1noc(-c2ccc(N3CCC[C@H](N[C@@H]4CCCC[C@H]4Nc4ncc(-c5cccc(C(N)=O)c5)o4)C3)cc2)n1 [Example 379] | 1 | –
Cc1nc(-c2ccc(N3CCC[C@](C)(N[C@@H]4CCCC[C@H]4Nc4cc(-c5cccc(C(N)=O)c5)ccn4)C3)cn2)no1 [Example 381] | – | 5
COC(=O)Nc1cccc(-c2cnc(N[C@@H]3CCCC[C@H]3N[C@H]3CCCN(c4ccc(-c5noc(C)n5)nc4)C3)o2)c1 [Example 382] | – | 1
COC(=O)c1cccc(-c2cnc(N[C@@H]3CCCC[C@H]3N[C@H]3CCCN(c4ccc(-c5noc(C)n5)nc4)C3)o2)c1 [Example 383] | – | 14
Cc1nc(-c2ccc(N3CCC[C@H](N[C@@H]4CCCC[C@H]4Nc4ncc(-c5cccc(C(=O)O)c5)o4)C3)cn2)no1 [Example 384] | – | 606
CNC(=O)c1cccc(-c2cnc(N[C@@H]3CCCC[C@H]3N[C@H]3CCCN(c4ccc(-c5noc(C)n5)nc4)C3)o2)c1 [Example 385] | – | 9
Cc1nc(-c2ccc(N3CCC[C@H](N[C@@H]4CCCC[C@H]4Nc4ncc(-c5cccc(C(=O)NCC(C)C)c5)o4)C3)cn2)no1 [Example 386] | – | 243
Cc1nc(-c2ccc(N3CCC[C@H](N[C@@H]4CCCC[C@H]4Nc4ncc(-c5cccc(C(=O)NC6CC6)c5)o4)C3)cn2)no1 [Example 387] | – | 78
Cc1nc(-c2ccc(N3CCC[C@](C)(N[C@@H]4CCCC[C@H]4Nc4ncc(-c5cccc(C(N)=O)c5)o4)C3)cn2)no1 [Example 389] | – | 13

SMILES | EC50 (human Y4 receptor, cAMP) [nM] | EC50 [1] [nM]
Cc1nc(-c2ncc(N3CCC[C@H](N[C@@H]4CCCC[C@H]4Nc4ncc(-c5cccc(C(N)=O)c5)o4)C3)cn2)no1 [Example 390] | – | 3
Cc1nc(-c2ccc(N3CCC[C@H](N[C@@H]4CCCC[C@H]4Nc4nccc(-c5ccccc5)n4)C3)nc2)no1 [Example 391] | – | 2
Cc1nc(-c2ccc(N3CCC[C@H](N[C@@H]4CCCC[C@H]4Nc4ncc(-c5ccc(OC(F)(F)F)cc5)o4)C3)nc2)no1 [Example 392] | – | 194
Cc1nc(-c2ccc(N3CCC[C@H](N[C@@H]4CCCC[C@H]4Nc4cc(-c5cccc(C(N)=O)c5)ccn4)C3)nc2)no1 [Example 393] | – | 1
Cc1nc(-c2ccc(N3CCC[C@H](N[C@@H]4CCCC[C@H]4Nc4ncc(-c5ccc(OC(F)(F)F)cc5)o4)C3)cn2)no1 [Example 394] | – | 427
Cc1nc(-c2ccc(N3CCC[C@H](N[C@@H]4CCCC[C@H]4Nc4nccc(-c5ccccc5)n4)C3)cn2)no1 [Example 395] | – | 5
Cc1nc(-c2ccc(N3CCC[C@H](N[C@@H]4CCCC[C@H]4Nc4ncc(-c5cccc(C(N)=O)c5)o4)C3)nc2)no1 [Example 396] | – | 0.2
Cc1nc(-c2ccc(N3CCC[C@H](N[C@@H]4CCCC[C@H]4Nc4ncc(-c5cccc(C(N)=O)c5)o4)C3)cn2)no1 [Example 397] | – | 3
NC(=O)c1cccc(-c2cnc(N[C@@H]3CCCC[C@H]3N[C@H]3CCCN(c4ncc(C(F)(F)F)cn4)C3)o2)c1 [Example 398] | 5 | –
NC(=O)c1cccc(-c2ccnc(N[C@@H]3CCCC[C@H]3N[C@H]3CCCN(c4ncc(C(F)(F)F)cn4)C3)c2)c1 [Example 399] | 22 | –
C[C@]1(N[C@@H]2CCCC[C@H]2Nc2cc(-c3cccc(C(N)=O)c3)ccn2)CCCN(c2ncc(C(F)(F)F)cn2)C1 [Example 400] | 28 | –
FC(F)(F)Oc1ccc(-c2cnc(N[C@@H]3CCCC[C@H]3N[C@H]3CCCN(c4cnc(C(F)(F)F)nc4)C3)o2)cc1 [Example 401] | 1480 | –
Fc1ccccc1-c1cnc(N[C@@H]2CCCC[C@H]2N[C@H]2CCCN(c3cnc(C(F)(F)F)nc3)C2)o1 [Example 402] | 161 | –
Fc1ccc(-c2cnc(N[C@@H]3CCCC[C@H]3N[C@H]3CCCN(c4cnc(C(F)(F)F)nc4)C3)o2)c(F)c1 [Example 403] | 264 | –
FC(F)(F)Oc1cccc(-c2cnc(N[C@@H]3CCCC[C@H]3N[C@H]3CCCN(c4cnc(C(F)(F)F)nc4)C3)o2)c1 [Example 404] | 954 | –
C[C@]1(N[C@@H]2CCCC[C@H]2Nc2ncc(-c3cccc(C(N)=O)c3)o2)CCCN(c2ncc(C(F)(F)F)cn2)C1 [Example 405] | 4 | –
FC(F)(F)c1ncc(N2CCC[C@H](N[C@@H]3CCCC[C@H]3Nc3ncc(-c4ccccc4)o3)C2)cn1 [Example 406] | 66 | –
NC(=O)c1cccc(-c2cnc(N[C@@H]3CCCC[C@H]3N[C@H]3C[C@@H]4C[C@H]3N(c3cnc(C(F)(F)F)nc3)C4)o2)c1 [Example 407] | 329 | –
NC(=O)c1cccc(-c2ccnc(N[C@@H]3CCCC[C@H]3N[C@H]3CCCN(c4cnc(C(F)(F)F)nc4)C3)c2)c1 [Example 408] | 121 | –
CNC(=O)c1cccc(-c2cnc(N[C@@H]3CCCC[C@H]3N[C@H]3CCCN(c4cnc(C(F)(F)F)nc4)C3)o2)c1 [Example 409] | 4 | –

SMILES | EC50 (human Y4 receptor, cAMP) [nM] | EC50 [1] [nM]
CC(C)(C)OC(=O)Nc1cccc(-c2cnc(N[C@@H]3CCCC[C@H]3N[C@H]3CCCN(c4cnc(C(F)(F)F)nc4)C3)o2)c1 [Example 410] | 320 | –
O=C(NC1CC1)c1cccc(-c2cnc(N[C@@H]3CCCC[C@H]3N[C@H]3CCCN(c4cnc(C(F)(F)F)nc4)C3)o2)c1 [Example 411] | 10 | –
Nc1cccc(-c2cnc(N[C@@H]3CCCC[C@H]3N[C@H]3CCCN(c4cnc(C(F)(F)F)nc4)C3)o2)c1 [Example 412] | 69 | –
COC(=O)Nc1cccc(-c2ccnc(N[C@@H]3CCCC[C@H]3N[C@H]3CCCN(c4cnc(C(F)(F)F)nc4)C3)c2)c1 [Example 413] | 6 | –
CS(=O)(=O)Nc1cccc(-c2cnc(N[C@@H]3CCCC[C@H]3N[C@H]3CCCN(c4cnc(C(F)(F)F)nc4)C3)o2)c1 [Example 414] | 5 | –
CS(=O)(=O)Nc1cccc(-c2ccnc(N[C@@H]3CCCC[C@H]3N[C@H]3CCCN(c4cnc(C(F)(F)F)nc4)C3)c2)c1 [Example 415] | 19 | –
O=C1OCCN1c1cccc(-c2cnc(N[C@@H]3CCCC[C@H]3N[C@H]3CCCN(c4cnc(C(F)(F)F)nc4)C3)o2)c1 [Example 416] | 49 | –
CCNC(=O)Nc1cccc(-c2cnc(N[C@@H]3CCCC[C@H]3N[C@H]3CCCN(c4cnc(C(F)(F)F)nc4)C3)o2)c1 [Example 417] | 6 | –
C[C@]1(N[C@H]2CCCC[C@@H]2Nc2cc(-c3cccc(C(N)=O)c3)ccn2)CCCN(c2cnc(C(F)(F)F)nc2)C1 [Example 418] | 48 | –
CC(C)COC(=O)Nc1cccc(-c2cnc(N[C@@H]3CCCC[C@H]3N[C@H]3CCCN(c4cnc(C(F)(F)F)nc4)C3)o2)c1 [Example 419] | 7 | –
CC(C)(C)COC(=O)Nc1cccc(-c2cnc(N[C@@H]3CCCC[C@H]3N[C@H]3CCCN(c4cnc(C(F)(F)F)nc4)C3)o2)c1 [Example 420] | 212 | –
CC(C)OC(=O)Nc1cccc(-c2cnc(N[C@@H]3CCCC[C@H]3N[C@H]3CCCN(c4cnc(C(F)(F)F)nc4)C3)o2)c1 [Example 421] | 23 | –
NC(=O)c1cccc(-c2cnc(N[C@@H]3CCCC[C@H]3N[C@H]3C[C@@H]4C[C@H]3N(c3ncc(C(F)(F)F)cn3)C4)o2)c1 [Example 422] | 41 | –
FC(F)(F)Oc1ccc(-c2cnc(N[C@@H]3CCCC[C@H]3N[C@H]3C[C@@H]4C[C@H]3N(c3ncc(C(F)(F)F)cn3)C4)o2)cc1 [Example 423] | 222 | –
NC(=O)c1cccc(-c2ccnc(N[C@@H]3CCCC[C@H]3N[C@H]3C[C@@H]4C[C@H]3N(c3ncc(C(F)(F)F)cn3)C4)c2)c1 [Example 424] | 69 | –
NC(=O)c1cc(-c2cnc(N[C@@H]3CCCC[C@H]3N[C@H]3CCCN(c4cnc(C(F)(F)F)nc4)C3)o2)ccn1 [Example 425] | 15 | –
N#Cc1ccnc(N[C@@H]2CCCC[C@H]2N[C@H]2CCCN(c3cnc(C(F)(F)F)nc3)C2)c1 [Example 426] | 600 | –
COC(=O)Nc1cccc(-c2cnc(N[C@@H]3CCCC[C@H]3N[C@H]3CCCN(c4cnc(C(F)(F)F)cn4)C3)o2)c1 [Example 427] | 1 | –
CNC(=O)Nc1cccc(-c2cnc(N[C@@H]3CCCC[C@H]3N[C@H]3CCCN(c4cnc(C(F)(F)F)nc4)C3)o2)c1 [Example 428] | 4 | –
CNC(=O)c1cccc(-c2cnc(N[C@@H]3CCCC[C@H]3N[C@H]3CCCN(c4cnc(C(F)(F)F)cn4)C3)o2)c1 [Example 429] | 2 | –
